Key:
[1] = INR (ratio of PT clotting times) in patients on coumadin; format: in vivo; conditions: patients receiving coumadin therapy; normal INR 0.8-1.3
[2] = test system: blood from patients receiving coumadin therapy; test: PT reagent initiated clot formation (CPA), coumadin patients; format: cell-based
Procedure: In this assay PT-fibrinogen reagent (Instrumentation Laboratories) was diluted 1:10 in normal saline containing 0.5% BSA to yield a 10% solution. On the upper cap of a CPA well set attached to a magnetic stirrer 1.6 μl of 1M CaCl2 and 3.8; or 4.0 μl of the diluted PT reagent were added. The stirrer assembly was placed in a CPA well containing 130 μl of whole blood and spinning at about 720 rpm started immediately. The spinning was stopped after 2 min. The well was then washed and stained as described above, and clot % surface coverage and clot average size were determined.

[3] = test system: vitamin K dependent clotting factors (II, VII, IX and X); test: Level of vitamin K dependent clotting factors on coumadin therapy; format: in vivo; conditions: patient on coumadin therapy, INR=3.0
[4] = test system: blood from a patient receiving heparin therapy; test: Heparin inhibition of factor Xa clot formation (CPA); format: cell-based
Procedure: In the following experiment bovine factor Xa (Sigma) and CaCl2 were used to initiate clot formation in whole blood. On the upper cap of a CPA well set was placed 2.2 μl of a factor Xa solution (7×10^−3 unit/ml) and 1.6 μl of 1M CaCl2. The stirrer assembly was placed in a well containing 130 μl of whole blood and spinning at about 720 rpm started immediately. The spinning was stopped after 2 min. The well was then washed and stained, and the clot % surface coverage and the clot average size were determined.

[5] = PTT of patient receiving heparin therapy; format: in vivo; conditions: normal 26-34 sec
[6] = test system: whole blood sample from a healthy subject; test: Titration of thrombin inhibitor hirudin with thrombin (CPA); format: cell-based
Procedure: The levels of thrombin inhibitory drugs such as hirudin and its analogs were determined by titrating the thrombin inhibitor in a whole blood sample with thrombin. To a whole blood sample from a healthy subject hirudin (Sigma) was add to a level of 5×10^−1 anti-thrombin Units/ml. Bovine thrombin (Sigma) (5 Units/ml or 10 Units/ml) was then added to the hirudin treated and untreated whole blood. The thrombin was placed on the upper cap of a CPA well set attached to a magnetic stirrer. The stirrer assembly was placed in a well containing 130 μl of whole blood and spinning at about 720 rpm started immediately. After two min. the spinning was stopped. As described above, the well was washed and stained, and the clot % surface coverage and clot average size determined.

[7] = test system: normal blood samples (citrated whole blood); test: Thrombin dose response of fibrin clot formation (CPA, image analysis); format: cell-based; conditions: FIGS. 2A-2B
Procedure: In this assay, increasing concentrations of thrombin, which promotes fibrin clot formation, were applied to normal blood samples. In particular, thrombin was placed on the tip of the rotating conical disc, in an amount yielding final concentration according to the points indicated in FIG. 3A and FIG. 3B. The conical disc was then applied in the well containing 130 μL of citrated whole blood, rotated at 720 rpm for two minutes followed by washing and staining of the well. For quantitative determination of fibrin clot formation image analysis (using Impact-R image analysis system, DiaMed, Switzerland) was performed.
Image analysis of the stained fibrin clots was performed expressing the amount of clot in terms of % of surface covered (SC, %), and the average size (AS, μm^2) of the stained clots.

[8] = factor Xa and CaCl2 added, FIG. 5D

Molecule: CC(=O)CC(c1ccccc1)c1c(O)c2ccccc2oc1=O (centres unmarked) [coumadin]
- INR [1]: 3.0
- clot formation ([2]; blood from coumadin patients, absence of clot initiator or CaCl2, FIG. 4C): no clots are formed
- clot formation ([2]; blood from coumadin treated patients (INR 3.0), PT reagent added, FIG. 4D): no clot formation was observed
- vitamin K dependent clotting factors level [3]: 25-40%

Molecule: heparin
- clot average size [4, 8]: 30
- clot formation [4, 8]: no clot formation was observed
- surface coverage [4, 8]: 3.0%
- clot average size ([4]; no factor Xa or CaCl2, FIG. 5C): 24
- surface coverage ([4]; no factor Xa or CaCl2, FIG. 5C): 8.2%
- PTT [5]: 130 s

Molecule: hirudin
- clotting ([6]; whole blood containing hirudin, thrombin 4×10^−2 Units/ml, FIG. 7B): no clotting was observed

Molecule: thrombin: Bovine thrombin (Sigma), promotes fibrin clot formation; clot initiator
- thrombin added giving sharp increase in both average size and surface coverage [7]: 0.005 IU/ml
- clotting ([6]; added thrombin 6×10^−2 Units/ml, whole blood treated with hirudin, FIG. 7D): Clotting was observed
- added thrombin concentration at which clotting began ([6]; thrombin added to the whole blood, FIG. 7C): 1×10^−2 Units/ml
